Data: ChEMBL document CHEMBL3046741, “Initial activity and persistence of insecticides for the control of bollworms (Lepidoptera: Noctuidae) in cotton crops” (2009)

How the values were obtained:
Format in all cases: functional
Diparopsis watersi = assay: Insecticidal activity against L3 to L4 larvae of Diparopsis watersi assessed as mortality after 48 hr by leaf disc assay
Helicoverpa armigera [1] = assay: Insecticidal activity against Helicoverpa armigera assessed as time above which insecticide kills less than 50% of larvae by measuring index of persistence in presence of 24 mm of simulated rain applied at three days interval
Helicoverpa armigera [2] = assay: Insecticidal activity against Helicoverpa armigera assessed as time above which insecticide kills less than 50% of larvae by measuring index of persistence under in absence of rain
Helicoverpa armigera [3] = assay: Insecticidal activity against L5 larvae of Helicoverpa armigera assessed as mortality after 48 hr by leaf disk assay
Helicoverpa armigera [4] = assay: Insecticidal activity against L4 larvae of Helicoverpa armigera assessed as mortality after 48 hr by leaf disk assay
Helicoverpa armigera [5] = assay: Insecticidal activity against L3 larvae of Helicoverpa armigera assessed as mortality after 48 hr by leaf disk assay
Helicoverpa armigera [6] = assay: Insecticidal activity against L2 larvae of Helicoverpa armigera assessed as mortality after 48 hr by leaf disk assay
Helicoverpa armigera [7] = assay: Insecticidal activity against L1 larvae of Helicoverpa armigera assessed as mortality after 48 hr by leaf disk assay
Earias = assay: Insecticidal activity against L3 to L4 larvae of Earias spp. assessed as mortality after 48 hr by leaf disk assay

For O=S1OCC2C(CO1)C1(Cl)C(Cl)=C(Cl)C2(Cl)C1(Cl)Cl (configuration not stated) [ENDOSULFAN], the mortality (Diparopsis watersi) was 82.8%, the Time (Helicoverpa armigera [1]) was 5.2 days and the Time (Helicoverpa armigera [2]) was 8.7 days. It also gave a mortality (Helicoverpa armigera [3]) of 92.5%, a mortality (Helicoverpa armigera [4]) of 89.5% and a mortality (Helicoverpa armigera [5]) of 94.1%. For the same compound, the mortality (Helicoverpa armigera [6]) was 91.5%, the mortality (Helicoverpa armigera [7]) was 93.3% and the mortality (Earias) was 99.4%.
With COC(=O)N(C(=O)N1CO[C@@]2(C(=O)OC)Cc3cc(Cl)ccc3C2=N1)c1ccc(OC(F)(F)F)cc1 [INDOXACARB] the mortality (Diparopsis watersi) was 77.7%, the Time (Helicoverpa armigera [1]) was 3.7 days and the Time (Helicoverpa armigera [2]) was 8.4 days. The mortality (Helicoverpa armigera [3]) was 94.5%, the mortality (Helicoverpa armigera [4]) was 90.9% and the mortality (Helicoverpa armigera [5]) was 89.3%. For the same compound, the mortality (Helicoverpa armigera [6]) was 78.9%, the mortality (Helicoverpa armigera [7]) was 86.2% and the mortality (Earias) was 90.8%.
Compound CS/C(C)=N\OC(=O)N(C)SN(C)C(=O)O/N=C(\C)SC [THIODICARB] has a mortality (Diparopsis watersi) of 99.3%, a Time (Helicoverpa armigera [1]) of 17.2 days and a Time (Helicoverpa armigera [2]) of 27 days. For the same compound, the mortality (Helicoverpa armigera [3]) was 96.5%, the mortality (Helicoverpa armigera [4]) was 97.5% and the mortality (Helicoverpa armigera [5]) was 94.1%. For the same compound, the mortality (Helicoverpa armigera [6]) was 99.2%, the mortality (Helicoverpa armigera [7]) was 98.6% and the mortality (Earias) was 100%.
